Several values for one entry are separate records, joined by “and”; a condition that tells them apart may be missing. Equal values may be shown once. ± gives the expanded uncertainty stated by the source.
Conditions: Liquid; for viscosity: Vibrating wire viscometry; for mass density: Vibrating tube method

In the case of `OCCOCCOCCO` [triethylene glycol], the viscosity (303 K, 65190 kPa) is reported as 48.95 ± 2 mPa·s, the viscosity (303 K, 66350 kPa) is reported as 49.26 ± 2 mPa·s and the mass density (303.15 K, 100 kPa) is reported as 1115.2 ± 4.5 kg/m3 and 1115.1 ± 4.5 kg/m3. The mass density (303.15 K, 630 kPa) was 1115.4 ± 4.5 kg/m3, the mass density (303.15 K, 1130 kPa) was 1115.6 ± 4.5 kg/m3 and the mass density (303.15 K, 1620 kPa) was 1115.9 ± 4.5 kg/m3. It also gave a mass density (303.15 K, 2140 kPa) of 1116.1 ± 4.5 kg/m3, a mass density (303.15 K, 3070 kPa) of 1116.5 ± 4.5 kg/m3 and a mass density (303.15 K, 5080 kPa) of 1117.4 ± 4.5 kg/m3. For the same compound, the mass density (303.15 K, 6960 kPa) was 1118.3 ± 4.5 kg/m3, the mass density (303.15 K, 9960 kPa) was 1119.6 ± 4.5 kg/m3 and the mass density (303.15 K, 14840 kPa) was 1121.7 ± 4.5 kg/m3. It also gave a mass density (303.15 K, 19750 kPa) of 1123.8 ± 4.5 kg/m3, a mass density (303.15 K, 24670 kPa) of 1125.9 ± 4.5 kg/m3 and a mass density (303.15 K, 29570 kPa) of 1127.9 ± 4.5 kg/m3. The mass density (303.15 K, 34500 kPa) was 1129.9 ± 4.5 kg/m3, the mass density (303.15 K, 39360 kPa) was 1131.9 ± 4.6 kg/m3 and the mass density (303.15 K, 44300 kPa) was 1133.8 ± 4.6 kg/m3. The mass density (303.15 K, 49190 kPa) was 1135.7 ± 4.6 kg/m3, the mass density (303.15 K, 54090 kPa) was 1137.6 ± 4.6 kg/m3 and the mass density (303.15 K, 58850 kPa) was 1139.3 ± 4.6 kg/m3. The mass density (303.15 K, 63890 kPa) was 1141.2 ± 4.6 kg/m3, the mass density (303.15 K, 68750 kPa) was 1142.9 ± 4.6 kg/m3 and the mass density (313.15 K, 100 kPa) was 1107.4 ± 4.4 kg/m3. The mass density (313.15 K, 670 kPa) was 1107.6 ± 4.4 kg/m3, the mass density (313.15 K, 1130 kPa) was 1107.9 ± 4.4 kg/m3 and the mass density (313.15 K, 1600 kPa) was 1108.1 ± 4.4 kg/m3. The mass density (313.15 K, 2080 kPa) was 1108.3 ± 4.4 kg/m3, the mass density (313.15 K, 3100 kPa) was 1108.8 ± 4.4 kg/m3 and the mass density (313.15 K, 5030 kPa) was 1109.7 ± 4.5 kg/m3. For the same compound, the mass density (313.15 K, 7010 kPa) was 1110.6 ± 4.5 kg/m3, the mass density (313.15 K, 10010 kPa) was 1112 ± 4.5 kg/m3 and the mass density (313.15 K, 14880 kPa) was 1114.2 ± 4.5 kg/m3. The mass density (313.15 K, 19750 kPa) was 1116.4 ± 4.5 kg/m3, the mass density (313.15 K, 24680 kPa) was 1118.6 ± 4.5 kg/m3 and the mass density (313.15 K, 29560 kPa) was 1120.6 ± 4.5 kg/m3. It also gave a mass density (313.15 K, 34510 kPa) of 1122.7 ± 4.5 kg/m3, a mass density (313.15 K, 39330 kPa) of 1124.7 ± 4.5 kg/m3 and a mass density (313.15 K, 44290 kPa) of 1126.7 ± 4.5 kg/m3. It also gave a mass density (313.15 K, 49180 kPa) of 1128.6 ± 4.5 kg/m3, a mass density (313.15 K, 54160 kPa) of 1130.6 ± 4.6 kg/m3 and a mass density (313.15 K, 59000 kPa) of 1132.4 ± 4.6 kg/m3. The mass density (313.15 K, 63910 kPa) was 1134.3 ± 4.6 kg/m3, the mass density (313.15 K, 68840 kPa) was 1136 ± 4.6 kg/m3 and the viscosity (313.26 K, 170 kPa) was 18.68 ± 1.2 mPa·s [middle of 4 runs]. For the same compound, the viscosity (313.26 K, 510 kPa) was 18.97 ± 0.78 mPa·s and 18.84 ± 0.77 mPa·s and 18.73 ± 0.77 mPa·s, the viscosity (313.26 K, 520 kPa) was 18.83 ± 0.77 mPa·s and the viscosity (313.26 K, 930 kPa) was 18.88 ± 1.2 mPa·s [middle of 6 runs]. The viscosity (313.26 K, 4460 kPa) was 19.45 ± 0.79 mPa·s, the viscosity (313.26 K, 4470 kPa) was 19.52 ± 0.79 mPa·s [middle of 4 runs] and the viscosity (313.26 K, 9660 kPa) was 20.02 ± 0.81 mPa·s. The viscosity (313.26 K, 9670 kPa) was 20.2 ± 0.82 mPa·s and 20.18 ± 0.82 mPa·s, the viscosity (313.26 K, 19980 kPa) was 22.07 ± 0.9 mPa·s and 21.92 ± 0.89 mPa·s and the viscosity (313.26 K, 19990 kPa) was 21.69 ± 0.88 mPa·s. For the same compound, the viscosity (313.26 K, 29400 kPa) was 23.4 ± 1.8 mPa·s and 23.28 ± 1.8 mPa·s, the viscosity (313.26 K, 29410 kPa) was 23.3 ± 1.8 mPa·s and the viscosity (313.26 K, 29530 kPa) was 23.21 ± 0.94 mPa·s. For the same compound, the viscosity (313.26 K, 29540 kPa) was 23.53 ± 0.96 mPa·s, the viscosity (313.26 K, 29550 kPa) was 23.54 ± 0.96 mPa·s and the viscosity (313.26 K, 29570 kPa) was 23.18 ± 1.7 mPa·s. For the same compound, the viscosity (313.26 K, 49800 kPa) was 26.84 ± 1.1 mPa·s, the viscosity (313.26 K, 49830 kPa) was 27.18 ± 1.1 mPa·s and the viscosity (313.26 K, 49920 kPa) was 27.22 ± 1.1 mPa·s. The viscosity (313.26 K, 49950 kPa) was 26.89 ± 1.1 mPa·s, the viscosity (313.26 K, 64360 kPa) was 29.73 ± 2.2 mPa·s and the viscosity (313.26 K, 64840 kPa) was 30.3 ± 1.6 mPa·s. For the same compound, the viscosity (313.26 K, 65380 kPa) was 30.08 ± 1.2 mPa·s, the viscosity (313.26 K, 66900 kPa) was 30.18 ± 1.3 mPa·s and the mass density (323.15 K, 100 kPa) was 1099.6 ± 4.4 kg/m3 and 1099.5 ± 4.4 kg/m3. The mass density (323.15 K, 590 kPa) was 1099.8 ± 4.4 kg/m3, the mass density (323.15 K, 1140 kPa) was 1100 ± 4.4 kg/m3 and the mass density (323.15 K, 1600 kPa) was 1100.3 ± 4.4 kg/m3. For the same compound, the mass density (323.15 K, 2080 kPa) was 1100.5 ± 4.4 kg/m3, the mass density (323.15 K, 3020 kPa) was 1101 ± 4.4 kg/m3 and the mass density (323.15 K, 5050 kPa) was 1101.9 ± 4.4 kg/m3. It also gave a mass density (323.15 K, 7000 kPa) of 1102.9 ± 4.4 kg/m3, a mass density (323.15 K, 9970 kPa) of 1104.3 ± 4.4 kg/m3 and a mass density (323.15 K, 14870 kPa) of 1106.7 ± 4.4 kg/m3. For the same compound, the mass density (323.15 K, 19780 kPa) was 1108.9 ± 4.5 kg/m3, the mass density (323.15 K, 24700 kPa) was 1111.2 ± 4.5 kg/m3 and the mass density (323.15 K, 29650 kPa) was 1113.3 ± 4.5 kg/m3. For the same compound, the mass density (323.15 K, 34470 kPa) was 1115.4 ± 4.5 kg/m3, the mass density (323.15 K, 39340 kPa) was 1117.5 ± 4.5 kg/m3 and the mass density (323.15 K, 44250 kPa) was 1119.6 ± 4.5 kg/m3. The mass density (323.15 K, 49170 kPa) was 1121.6 ± 4.5 kg/m3, the mass density (323.15 K, 54080 kPa) was 1123.5 ± 4.5 kg/m3 and the mass density (323.15 K, 58970 kPa) was 1125.5 ± 4.5 kg/m3. It also gave a mass density (323.15 K, 63800 kPa) of 1127.3 ± 4.5 kg/m3, a mass density (323.15 K, 68780 kPa) of 1129.2 ± 4.6 kg/m3 and a mass density (333.15 K, 100 kPa) of 1091.7 ± 4.4 kg/m3. For the same compound, the mass density (333.15 K, 660 kPa) was 1092 ± 4.4 kg/m3, the mass density (333.15 K, 1110 kPa) was 1092.2 ± 4.4 kg/m3 and the mass density (333.15 K, 1600 kPa) was 1092.5 ± 4.4 kg/m3.
